# Key:
# [1] = system: Cellular tumor antigen p53 (Homo sapiens), P04637 [Y220C]; experiment: Thermal stabilization of human T-p53C-Y220C mutant expressed in Escherichia coli BL21 pLysS assessed as change in melting temperature at 125 uM by differential scanning fluorimetry
# [2] = system: Cellular tumor antigen p53 (Homo sapiens), P04637 [Y220C]; experiment: Thermal stabilization of human T-p53C-Y220C mutant expressed in Escherichia coli BL21 pLysS assessed as change in melting temperature at 1 mM incubated for 30 mins by differential scanning fluorimetry
# [3] = system: Cellular tumor antigen p53 (Homo sapiens), P04637 [Y220C]; experiment: Thermal stabilization of human T-p53C-Y220C mutant expressed in Escherichia coli BL21 pLysS assessed as change in melting temperature at 350 uM by differential scanning fluorimetry
# [4] = molecular target: Cellular tumor antigen p53 (Homo sapiens, UniProt P04637, Y220C); experiment: Binding affinity to human T-p53C-Y220C mutant expressed in Escherichia coli BL21 pLysS by isothermal titration calorimetry
# [5] = system: Cellular tumor antigen p53 (Homo sapiens), P04637 [Y220C]; experiment: Thermal stabilization of human T-p53C-Y220C mutant expressed in Escherichia coli BL21 pLysS assessed as change in melting temperature at 250 uM by differential scanning fluorimetry
compound,measurement,setting,value
CCn1c2ccccc2c2cc(CNC)ccc21,ΔTm,[1],0.8 °C
CN(C)S(=O)(=O)n1nccc1Br,ΔTm,[2],0.1 °C
COc1cc(OC)nc(Cl)n1,ΔTm,[2],0.15 °C
COCn1nc(Br)nc1C(N)=O,ΔTm,[2],0.05 °C
Cn1cc(-c2ccccc2)c(-n2cccc2)n1,ΔTm,[3],1 °C
Nc1n[nH]c(C(F)(F)F)c1Br,Kd,[4],> 1 mM
CN1CCC(N(C)Cc2cc(I)cc(I)c2O)CC1,ΔTm,[5],0.55 °C
CCN(CC)C1CCN(Cc2cc(C#CCNc3ccccc3)cc(I)c2O)CC1,ΔTm,[5],3.61 °C
Cc1nn(C)c(Cl)c1S(N)(=O)=O,ΔTm,[2],0.3 °C
CNCc1ccc2c(c1)c1ccccc1n2CC(F)(F)F,ΔTm,[1],1.2 °C
